{"source": "patent US8592407B2", "about": "“Pyrrolo[2,1-c][1,4] benzodiazepine derivatives with dithiocarbamate side chains and process for the preparation thereof” (Council of Scientific & Industrial Research, priority 2008, dated 2013)", "key": {"calf thymus DNA (CT-DNA)": {"tested_on": "calf thymus DNA (CT-DNA)", "assay": "Thermal denaturation studies with duplex-form calf thymus DNA", "format": "binding", "conditions": "[PBD]:[DNA] 1:5, CT-DNA 100 μM, ligand 20 μM, pH 7.00; for ΔTm after incubation at 37° C. for 0 h: 0 h at 37° C.; for ΔTm after incubation at 37° C. for 18 h: 18 h at 37° C.", "experimental": "Compounds have been subjected to thermal denaturation studies with duplex-form calf thymus DNA (CT-DNA) using an modification of a reported procedure (Newman, M. S. Carcinog-compr. Surv. 1976, 1, 203; (b) Hecht, S. S.; Loy, M.; Hoffman, Carcinog-compr. Surv. 1976, 1, 325). Working solutions in aqueous buffer (10 mM NaH2PO4/Na2HPO4, 1 mM Na2EDTA, pH 7.00+0.01) containing CT-DNA (100 μm in phosphate) and the PBD (20 μm) have been prepared by addition of concentrated PBD solutions in DMSO to obtain a fixed [PBD]/[DNA] molar ratio of 1:5. The DNA−PBD solutions have been incubated at 37° C. for 0 and 18 h prior to analysis. Samples have been monitored at 260 nm using a Beckman DU-800 spectrophotometer fitted with high performance temperature controller, and heated at 1° C. min^−1\nin the 40-110° C. range. DNA helix[…]coil transition temperatures (Tm) have been obtained from the maxima in the d(A260)/dT derivative plots. Drug-induced alterations in DNA melting behavior are given by: ΔTm=Tm(DNA+PBD)−Tm (DNA alone), where the Tm value for the PBD-free CT-DNA is 69.1±0.01."}, "Ovary OVCAR-5": {"tested_on": "Ovary OVCAR-5", "assay": "Preliminary in vitro cytotoxicity on six cell lines"}, "Lung A-549": {"tested_on": "Lung A-549", "assay": "Preliminary in vitro cytotoxicity on six cell lines"}, "Neuroblastoma IMR-32": {"tested_on": "Neuroblastoma IMR-32", "assay": "Preliminary in vitro cytotoxicity on six cell lines"}, "Colon HCT-15": {"tested_on": "Colon HCT-15", "assay": "Preliminary in vitro cytotoxicity on six cell lines", "conditions": "unit assumed"}, "Liver HEP-2": {"tested_on": "Liver HEP-2", "assay": "Preliminary in vitro cytotoxicity on six cell lines", "conditions": "unit assumed"}, "Colon 502713": {"tested_on": "Colon 502713", "assay": "Preliminary in vitro cytotoxicity on six cell lines", "conditions": "concentration (mg/ml) 1 × 10^−5 M"}, "[1]": {"conditions": "concentration (mg/ml) 1 × 10^−5 M"}, "[2]": {"conditions": "concentration (mg/ml) 1 × 10^−6 M"}}, "data": [{"smiles": "COc1cc2c(cc1OCCCCCN1CCN(C(=S)SCCC(C#N)(c3ccccc3)c3ccccc3)CC1)N=C[C@@H]1CCCN1C2=O", "note": "[Compound 12d, 3-cyano-3,3-diphenylpropyl 4-(5-[(11aS)-7-(methyloxy)-5-oxo-2,3,5,11a-tetrahydro-1H-benzo[e]pyrrolo[1,2-a][1,4]diazepin-8-yl]oxypentyl)hexahydro-1-pyrazinecarbodithioate]", "values": [{"measurement": "ΔTm after incubation at 37° C. for 0 h", "setting": "calf thymus DNA (CT-DNA)", "result": 2.0, "unit": "°C"}, {"measurement": "ΔTm after incubation at 37° C. for 18 h", "setting": "calf thymus DNA (CT-DNA)", "result": 2.1, "unit": "°C"}]}, {"smiles": "COc1cc2c(cc1O)N=CC1CCCN1C2=O", "note": "(stereo not shown) [DC-81, reference compound]", "values": [{"measurement": "ΔTm after incubation at 37° C. for 0 h", "setting": "calf thymus DNA (CT-DNA)", "result": 0.3, "unit": "°C"}, {"measurement": "ΔTm after incubation at 37° C. for 18 h", "setting": "calf thymus DNA (CT-DNA)", "result": 0.7, "unit": "°C"}]}, {"smiles": "COc1cc2c(cc1OCCCCSC(=S)N1CCN(CCCN3C(=O)c4cccc5cccc(c45)C3=O)CC1)N=C[C@@H]1CCCN1C2=O", "note": "[Compound 13c, 4-[(11aS)-7-(methyloxy)-5-oxo-2,3,5,11a-tetrahydro-1H-benzo[e]pyrrolo[1,2-a][1,4]diazepin-8-yl]oxybutyl4-[3-(1,3-dioxo-2,3-dihydro-1H-benzo[de]isoquinolin-2-yl)propyl]hexahydro-1-pyrazinecarbodithioate]", "values": [{"measurement": "ΔTm after incubation at 37° C. for 0 h", "setting": "calf thymus DNA (CT-DNA)", "result": 5.0, "unit": "°C"}, {"measurement": "ΔTm after incubation at 37° C. for 18 h", "setting": "calf thymus DNA (CT-DNA)", "result": 5.0, "unit": "°C"}]}, {"smiles": "COc1cc2c(cc1OCCCCSC(=S)N1CCN(C)CC1)N=C[C@@H]1CCCN1C2=O", "note": "[Compound 14c, 4-[(11aS)-7-(methyloxy)-5-oxo-2,3,5,11a-tetrahydro-1H-benzo[e]pyrrolo[1,2-a][1,4]diazepin-8-yl]oxybutyl4-methylhexahydro-1-pyrazinecarbodithioate]", "values": [{"measurement": "ΔTm after incubation at 37° C. for 0 h", "setting": "calf thymus DNA (CT-DNA)", "result": 2.1, "unit": "°C"}, {"measurement": "ΔTm after incubation at 37° C. for 18 h", "setting": "calf thymus DNA (CT-DNA)", "result": 2.2, "unit": "°C"}, {"measurement": "Preliminary in vitro cytotoxicity data", "setting": "Ovary OVCAR-5; [1]", "result": 36}, {"measurement": "Preliminary in vitro cytotoxicity data", "setting": "Lung A-549; [1]", "result": 50}, {"measurement": "Preliminary in vitro cytotoxicity data", "setting": "Neuroblastoma IMR-32; [1]", "result": 86}, {"measurement": "Preliminary in vitro cytotoxicity data", "setting": "Colon HCT-15; [1]", "result": 82, "unit": "%"}, {"measurement": "Preliminary in vitro cytotoxicity data", "setting": "Liver HEP-2; [1]", "result": 66, "unit": "%"}, {"measurement": "Preliminary in vitro cytotoxicity data", "setting": "Colon 502713", "result": 75}]}, {"smiles": "COc1cccc2c1C(=O)c1c(O)c3c(c(O)c1C2=O)C[C@@](O)(C(=O)CO)C[C@@H]3O[C@H]1C[C@H](N)[C@H](O)[C@H](C)O1", "note": "[Adriamycin, reference compound]", "values": [{"measurement": "Preliminary in vitro cytotoxicity data", "setting": "Ovary OVCAR-5; [2]", "result": 30}, {"measurement": "Preliminary in vitro cytotoxicity data", "setting": "Lung A-549; [2]", "result": 61}, {"measurement": "Preliminary in vitro cytotoxicity data", "setting": "Neuroblastoma IMR-32; [2]", "result": 80}, {"measurement": "Preliminary in vitro cytotoxicity data", "setting": "Colon HCT-15; [2]", "result": 58, "unit": "%"}, {"measurement": "Preliminary in vitro cytotoxicity data", "setting": "Liver HEP-2; [2]", "result": 31, "unit": "%"}]}, {"smiles": "COc1cc2c(cc1OCCCCCSC(=S)N1CCN(CCCN3C(=O)c4cccc5cccc(c45)C3=O)CC1)N=C[C@@H]1CCCN1C2=O", "note": "[Compound 13d, 5-[(11aS)-7-(methyloxy)-5-oxo-2,3,5,11a-tetrahydro-1H-benzo[e]pyrrolo[1,2-a][1,4]diazepin-8-yl]oxypentyl4-[3-(1,3-dioxo-2,3-dihydro-1H-benzo[de]isoquinolin-2-yl)propyl]hexahydro-1-pyrazinecarbodithioate]", "values": [{"measurement": "ΔTm after incubation at 37° C. for 0 h", "setting": "calf thymus DNA (CT-DNA)", "result": 4.0, "unit": "°C"}, {"measurement": "ΔTm after incubation at 37° C. for 18 h", "setting": "calf thymus DNA (CT-DNA)", "result": 4.6, "unit": "°C"}]}, {"smiles": "COc1cc2c(cc1OCCCSC(=S)N1CCN(CCCN3C(=O)c4cccc5cccc(c45)C3=O)CC1)N=C[C@@H]1CCCN1C2=O", "note": "[Compound 13b, 3-[(11aS)-7-(methyloxy)-5-oxo-2,3,5,11a-tetrahydro-1H-benzo[e]pyrrolo[1,2-a][1,4]diazepin-8-yl]oxypropyl4-[3-(1,3-dioxo-2,3-dihydro-1H-benzo[de]isoquinolin-2-yl)propyl]hexahydro-1-pyrazinecarbodithioate]", "values": [{"measurement": "ΔTm after incubation at 37° C. for 0 h", "setting": "calf thymus DNA (CT-DNA)", "result": 3.1, "unit": "°C"}, {"measurement": "ΔTm after incubation at 37° C. for 18 h", "setting": "calf thymus DNA (CT-DNA)", "result": 3.3, "unit": "°C"}]}, {"smiles": "COc1cc2c(cc1OCCCCCSC(=S)N1CCN(C)CC1)N=C[C@@H]1CCCN1C2=O", "note": "[Compound 14d, 5-[(11aS)-7-(methyloxy)-5-oxo-2,3,5,11a-tetrahydro-1H-benzo[e]pyrrolo[1,2-a][1,4]diazepin-8-yl]oxypentyl4-methylhexahydro-1-pyrazinecarbodithioate]", "values": [{"measurement": "ΔTm after incubation at 37° C. for 0 h", "setting": "calf thymus DNA (CT-DNA)", "result": 6.0, "unit": "°C"}, {"measurement": "ΔTm after incubation at 37° C. for 18 h", "setting": "calf thymus DNA (CT-DNA)", "result": 10.9, "unit": "°C"}, {"measurement": "Preliminary in vitro cytotoxicity data", "setting": "Ovary OVCAR-5; [1]", "result": 22}, {"measurement": "Preliminary in vitro cytotoxicity data", "setting": "Lung A-549; [1]", "result": 31}, {"measurement": "Preliminary in vitro cytotoxicity data", "setting": "Neuroblastoma IMR-32; [1]", "result": 95}, {"measurement": "Preliminary in vitro cytotoxicity data", "setting": "Colon HCT-15; [1]", "result": 50, "unit": "%"}, {"measurement": "Preliminary in vitro cytotoxicity data", "setting": "Liver HEP-2; [1]", "result": 66, "unit": "%"}, {"measurement": "Preliminary in vitro cytotoxicity data", "setting": "Colon 502713", "result": 78}]}]}
